Records with an inconclusive call do not appear. Active and inactive are the calls of the source.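 The calls were made as follows: active = fitted EC50 at most tenfold above the highest tested dose; inconclusive = flat fit with 30 to 70% signal loss, or poor fit; inactive = the rest.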
System: NIH-3T3 fibroblasts viability, Alamar Blue fluorescence, 48 h
Assay: mammalian cell viability loss with fluconazole – Alamar Blue fluorescence, cytotoxicity control for reversing antifungal drug resistance, dose response (AID 434923)

Row | Compound | EC50
1 | O=C(Nc1nnc(-c2ccco2)o1)c1ccc(Cl)cc1 | > 26 µM (inactive)
2 | O=C(Nc1nc(-c2ccccn2)cs1)c1ccc(Br)s1 | > 26 µM (inactive)
3 | Nc1nccnc1C(=O)Nc1nnc(SCc2ccc(Cl)cc2)s1 | > 26 µM (inactive)
4 | CCOC(=O)N1C(=O)C2(CCCCC2)N(c2ccc(C)cc2)C1=S | > 26 µM (inactive)
5 | Cc1nc2ccccc2cc1OCc1ccc(F)cc1 | > 26 µM (inactive)
6 | COc1cc2c(cc1NC(=O)c1ccco1)CCCC2 | > 26 µM (inactive)
7 | Cc1ccc(Nc2nc(N)c([N+](=O)[O-])c(N3CCC(C)CC3)n2)cc1C | > 26 µM (inactive)
8 | c1ccc2c(c1)OCC(CNc1ncnc3sccc13)O2 (stereo not given) | > 12 µM (inactive)
9 | CC(C)N1CCc2c(sc(NC(=O)c3nc4ccccc4s3)c2C(N)=O)C1 | > 26 µM (inactive)
10 | O=C(Nc1nnc(CCc2ccccc2)s1)c1ccco1 | > 26 µM (inactive)
11 | O=C(Nc1sc2c(c1C(=O)c1ccc(Cl)cc1)CCCC2)c1cccnc1 | > 26 µM (inactive)
12 | COc1ccc(-c2nnc(NC(=O)c3ccc(F)cc3)o2)cc1 | > 26 µM (inactive)
13 | O=C1/C(=C\c2ccccc2)CCc2c1[nH]c1ccccc21 | > 26 µM (inactive)
14 | CCCC(=O)NC(c1ccccc1)c1ccc2cccnc2c1O (stereo not given) | > 26 µM (inactive)
15 | O=C(Nc1nnc(SCc2ccc(Cl)cc2)s1)c1ccc2ccccc2n1 | 12 µM
16 | CCc1ccc2c(c1)/C(=C/C(=O)c1cccs1)C(=O)N2 | 14 µM
17 | CCOC(=O)c1c(-c2ccccc2Cl)cn2ccccc12 | > 26 µM (inactive)
18 | COc1ccc(-n2nc(C(=O)NCC(=O)N3CCN(c4ccccc4)CC3)c3ccccc3c2=O)c(OC)c1 | > 26 µM (inactive)
19 | O=C(Oc1c(Cl)cc(Cl)c2cccnc12)c1cccs1 | 21.8 µM
20 | Clc1ccc2c(c1)C(c1cccs1)=NNC(c1cccnc1)=N2 | > 26 µM (inactive)
21 | CCCC(=O)NC(c1ccc(Cl)cc1)c1ccc2cccnc2c1O (stereo not given) | 3.44 µM
22 | Cc1ccc(/C=C/C(=O)c2ccccc(=O)c2O)cc1C | > 26 µM (inactive)
23 | O=C(Nc1nnc(-c2ccc3c(c2)CCCC3)o1)c1ccc(Cl)cc1Cl | > 26 µM (inactive)
24 | O=C(NNC1=C(C(=O)C(F)(F)F)CCC1)c1ccc(Cl)cc1 | > 26 µM (inactive)
25 | CC(C)COCc1ccc(O)c2ncccc12 | < 0.1 µM
